Assay [1] has as its system estrogen receptor (ER). As to the kind of experiment: adenoERreporter assay in breast cancer cells from metastatic effusions (pleural, ascites). In kind it is cell-based, human. The source says:
In the case of metastatic fluid, 100 mls of the fluid was sent for cytological examination and staining for ER and PR. The remaining fluid was centrifuged and the cell pellets were pooled. This was re-suspended in RPMI-1640/1% FCS and tumour cell numbers estimated as before. If the cells were in clusters, trypsin/EDTA (Sigma, Poole, UK) was used to obtain single cell suspensions before filtering to remove any debris. The remaining steps were as above. The purified cells were either infected immediately or cultured for a few days prior to infection.
(§1) For infections of primary cells, 6-10,000 cells/well were allowed and exposed to the given quantity of virus, after which they were pelleted and re-supended in 200 ul of PR free/5% DSS medium containing the appropriate ligands prior to plating into 96-well plates.
(§2) Reporter Gene Assay 48 hours after virus infection, 20 ul of 20% Triton in PBS was added to each well and incubated at RT for 10 minutes. […] (CRPG) made up in TBS at a concentration of 8 mg/ml was then added to the wells and the plate was incubated, foil-wrapped, at 37° C. until a colour change was observed. Plate readings were taken at a wavelength of 547 nm.
(§3) We purified breast cancer cells from metastatic fluid, both pleural and ascites as well as fine needle aspirates (FNA) from recurrent breast cancer. These cells were counted and infected with adenoERreporter and after 48 hours a β-gal assay was performed. We have infected 9 metastatic effusions including 2 cell lines of passage number two, derived from pleural effusions and 4 FNAs. Tables 3 and 4 show the treatment history and characteristics of the patients that provided the samples. Where possible, some of the fluid was sent for cytology and ER staining.
A general note: In a reporter assay the amount or activity of a reporter protein is the signal.

Assay [2] concerns estrogen receptor (ER). As to the kind of experiment: adeno-reporter assay in purified primary breast cancer cells (tumour, lymph node). Particulars: for Reporter response: E2 10 nM, OHT 100 nM, ICI 100 nM, 48 h. It is filed as cell-based, human. How it is done: The product was then filtered through a nylon mesh (Lockertex Ltd, Merseyside, UK) and the filtrate centrifuged at 2000 rpm, at room temperature (RT). The pellet was re-suspended in 9 mls of RPMI/1% FCS and a cell count performed to estimate the number of tumour cells in the preparation. […] A count of viable tumour cells was performed using trypan blue (Sigma, Poole, UK) prior to seeding in breast complete medium (DMEM/F-12 containing, 15 mM Hepes, 2 mM L-glutamine, 100U/ml penicillin, O. 1 mg/ml streptomycin, 50 U/ml polymixin B, 2.5 μg/ml amphotericin B, 5 μg/ml insulin, 10 μg/ml apo-transferrin, 100 μM ethanolamine, 1 μg/ml hydrocortisone, 10 ng/ml EGF) plus 5% FCS) for culture. The cells were used for experiments on day 3 after the initial plating.
as §1
Cells were incubated for 48 hours following infections unless stated otherwise.
as §2
We have used the adeno-reporter to infect purified cells from breast cancer and lymph nodes of 19 patients. The reporter assay was performed in a blinded fashion since the IHC report of ER status was not available until after the experiments were complete. Viral infections were performed in suspension so as not to loose cancer cells since they were only loosely adherent. Following exposure to the virus for an hour, the cells were washed to remove excess virus and then plated and incubated in PR free/5% DSS supplemented with the given ligands for 48 hours.

The subject of assay [3] is estrogen receptor (ER). As to the kind of experiment: adenoERreporter assay in fine needle aspirates (FNA) from recurrent breast cancer. It is filed as cell-based, human. As for the experimental part:
Cells obtained from FNAs were collected in PBS (Sigma, Poole, UK) containing 2% FCS. If the aspirate was bloody, erythrocyte lysis buffer (0.155M NH4Cl, 10 mM KHCO3, 0.1 mM EDTA, pH 7.4) was used to lyse the red blood cells and after a further wash with PBS, the cells were re-suspended in culture media for counting and immediate infections.
as §1, §2
as §3, with “staining. However, this was not always feasible due to the variability of cancer cells in the metastatic fluid.” for “staining.”

For assay [4], the system named is normal mammary epithelial cells. As to the kind of experiment: effects of estrogen and tamoxifen on purified normal mammary epithelial cells. It is filed as cell-based, human. Particulars: purified normal breast cells. As for the experimental part: Cell viability was assessed using exclusion of Trypan blue staining. Proliferation of cells in culture was assessed by measuring tritiated thymidine (3HTdR) incorporation into DNA and using the MTS assay. For ^3HTdR-labelling, purified cells were seeded into the wells of 24-well dishes. The medium was subsequently changed for 0.5 ml of ^3HTdR-supplemented thymidine-free medium (RPMI, 2 mM L-glutamine, 100U/ml penicillin, 0.1 mg/ml streptomycin plus dialysed 2% FCS). The amount of incorporated ^3HTdR in the cultures was measured by scintillation counting following precipitation with trichloroacetic acid. MTS assays were carried out using the Cell Titre 96 (Promega, UK), according to manufacturer's protocols.
(§4) 1×10^5 cells were plated into the wells of 96 well plates. […] Total and viable (Trypan blue) cell counts were measured during the time course of the experiment.
(§5) Normal cells were studied at several time points whereas due to limited number of cells, studies were limited to 2 time points in tumors. Trypan Blue staining determined viable cell numbers.

Assay [5] relates to estrogen receptor (ER). The assay is described as follows: viral ER reporter in ER negative breast cancer cell lines. It is filed as cell-based, human. To be noted: virus 100:1. How it is done:
FIG. 3: Reporter activity in variety of estrogen receptor alpha positive (MCF-7, T47-D, ZR75-1, BT474) and negative (Cal-51, SkBr3, and MDA-MB231 cell lines). For each figure, the order is as follows: (1) refers to the no ligand control.
For adenovirus infections, cell lines were plated in 96 wells at the given density in phenol red free DMEM supplemented with 5% double-stripped serum (PR/5% DSS). The following day cells were exposed to the given quantity of plaque forming units per cell (multiplicity of infection, MOI) in PR/SF medium. This was incubated at 37° C. for 1 hour after which the media was replaced by PR free/5% DSS containing the ligands.
as §2
We went on to test the virus reporter in a variety of ER positive and ER negative cell lines. Again 0.5×10^5 cells were infected with 100 virus per cell (100:1). Using the GFP virus it was evident that the infectability of the cell lines was variable. […]

The subject of assay [6] is malignant mammary epithelial cells. The assay is described as follows: effects of estradiol and tamoxifen on survival of purified malignant mammary epithelial cells (Trypan blue counts). It is filed as cell-based, human. To be noted: for effect on cell death: ER positive purified breast cancer cells, E2 10 nM, OHT 100 nM. As for the experimental part: as §4, §5
The subject of another assay is ER positive tumours. To be noted: cited from earlier work.
The mark [7] stands for this setting: Table 2 patient 5 Ln, ER+/PR−, Pre.
The mark [8] stands for this setting: Table 2 patient 8, ER+++/PR−, Post.
The mark [9] stands for this setting: Table 2 patient 12 Tu, Anaplastic small cell carcinoma, ER−/PR−.
[10] abbreviates: Table 2 patient 13, ER−/PR−, Post.

4-hydroxytamoxifen [4-OHT]: in the assay with estrogen receptor (ER) [1] (patient 4 (table 3), ascites, no previous treatment), the “effect on ER activity” value is “inhibitory”. For the same compound, the Reporter response result in the assay on estrogen receptor (ER) [2] (setting [7]), in the assay with estrogen receptor (ER) [2] (setting [8]), with estrogen receptor (ER) [2] (Table 2 patient 12 Ln), in the assay with estrogen receptor (ER) [2] (setting [9]), with estrogen receptor (ER) [2] (setting [10]) and in the assay with estrogen receptor (ER) [2] (Table 2 patient 15 Ln) was “ns” each time. Moreover, the Reporter response result in the assay on estrogen receptor (ER) [2] (Table 2 patient 15 Tu, ER−/PR−) is recorded as “ns”; in the assay with estrogen receptor (ER) [2] (Table 2 patient 16 Ln) it was “ns”; in the assay with estrogen receptor (ER) [2] (Table 2 patient 16 Tu, Post), “ns”; in the assay on estrogen receptor (ER) [2] (Table 2 patient 17), “ns”; in the assay with estrogen receptor (ER) [2] (Table 2 patient 18, ER−/PR−), “ns”. In addition, in the assay with estrogen receptor (ER) [3] (FNA summary table, N = 1, IHC ER−/PR−, ?Responder), the “Reporter Assay: inhibition” value is listed as “OHT/ICI inhibit by × 1.8”.

`C[C@]12CC[C@@H]3c4ccc(O)cc4CC[C@H]3[C@@H]1CC[C@@H]2O` [E2, 17β-estradiol]: the “expression of estrogen-regulated genes after estrogen exposure” value in assay [4] is “expressing both PR and PS2”. Moreover, the “effect on ERE driven β-gal reporter / baseline activity” value in the assay with estrogen receptor (ER) [5] is on record as “no appreciable effect”. In addition, the “stimulatory effect on the reporter above the background activity” value in the assay with estrogen receptor (ER) [1] (ER positive relapsed patients, compared with primary breast tumour) is given as “less of a stimulatory effect”. Further, the “Reporter Activity” value with estrogen receptor (ER) [1] (Table 3 patient 1) T2G2NxM0, PE, primary ER++/PR−, prior Tamoxifen 3y, Lentaron 5m) is “Ns”; in the assay on estrogen receptor (ER) [3] (Table 4 patient 1) T3G2N1M0, FNA ER−/PR−, no prior endocrine treatment), “Ns”. Further, in assay [6] (ER negative breast cancer cells), the “effect of estrogen on cells” value was “no effect”. In addition, the “effect on cell death” value in assay [6] is given as “reduction in cell death”. For the same compound, the Reporter response entry with estrogen receptor (ER) [2] (setting [7]), in the assay on estrogen receptor (ER) [2] (setting [8]), with estrogen receptor (ER) [2] (Table 2 patient 12 Ln), in the assay with estrogen receptor (ER) [2] (setting [9]), in the assay on estrogen receptor (ER) [2] (setting [10]) and in the assay with estrogen receptor (ER) [2] (Table 2 patient 15 Ln) was “ns” in each case. In addition, the Reporter response entry is reported as “ns” with estrogen receptor (ER) [2] (Table 2 patient 15 Tu, ER−/PR−); “ns” in the assay with estrogen receptor (ER) [2] (Table 2 patient 16 Ln); “ns” in the assay on estrogen receptor (ER) [2] (Table 2 patient 16 Tu, Post); “ns” in the assay on estrogen receptor (ER) [2] (Table 2 patient 17); “ns” in the assay with estrogen receptor (ER) [2] (Table 2 patient 18, ER−/PR−).

Turning to `CC/C(=C(\c1ccccc1)c1ccc(OCCN(C)C)cc1)c1ccccc1` [tamoxifen], the effect on proliferation result in assay [4] is “decrease”. The “increase in reporter activity in the presence of tamoxifen” value with estrogen receptor (ER) [1] (patient 1 (Table 3)) was “approximately 10 fold”. Also, the “response of cells to tamoxifen” value in the assay with estrogen receptor (ER) [1] (patient 3, table 3, previous tamoxifen for one year) is recorded as “continued to respond to tamoxifen”. For the same compound, the “effect on reporter compared with E2” value in the assay with estrogen receptor (ER) [1] (patient samples 1, 5 and 6 (Table 3) and patient 6 (Table 4), relapsed after tamoxifen) is given as “an effect at least equivalent to E2”. The “patients with ERα-positive disease that do not respond” value with ER positive tumours (breast cancer patients, adjuvant/metastatic treatment) is “approximately 30%”. Besides, the “patients with ER positive tumours that fail to respond” value in the assay with ER positive tumours (primary endocrine therapy (Gazet et al 1987)) is approximately 50%. Moreover, the “cell numbers after tamoxifen treatment compared to estradiol treatment” value in assay [6] (7 tumors studied, responders all ER positive, viable counts by Trypan Blue) is “Four out of the 7 tumors studied showed significant reduction in cell numbers”. Besides, the “effect on cell death” value in assay [6] is “reversed”. In addition, the “effect on reporter activity across patient samples” value with estrogen receptor (ER) [2] (purified cells from breast cancer and lymph nodes of 19 patients) was “inhibitory in most cases but did show some agonistic activity in a proportion of patients”.

The record behind these values is patent US20050100888A1, “Methods based on hormone dependency of primary cancer cells” (Imperial College Innovations Limited, priority 2002, published 2005).
